# Results: US10537570B2, “Use of pimobendan for the reduction of heart size and/or the delay of onset of clinical symptoms in patients with asymptomatic heart failure due to mitral valve disease” (priority 2016, dated 2020)
# Assays:
# [1] = system: dogs suffering from asymptomatic (occult, preclinical) heart failure due to mitral valve disease (MVD); assay: Interim analysis: pimobendan vs placebo in dogs with asymptomatic heart failure due to MVD; format: in vivo
# [2] = system: dogs with MMVD and echocardiographic and radiographic evidence of cardiomegaly; settings: dog, in vivo
# [3] = system: dogs with asymptomatic mitral valve disease; settings: after addition of pimobendan to ACE inhibitor treatment; Ouellet M et al. 2009; cited from earlier work
# dogs = settings: two dogs; long-term (chronic) clinical therapy; Tissier R et al. 2005; cited from earlier work
# [4] = system: dogs with MMVD and echocardiographic and radiographic evidence of cardiomegaly; assay: Blinded, placebo controlled study of 360 dogs (preliminary analysis of final results)
smiles,measurement,setting,value
"COc1ccc(-c2nc3ccc(C4=NNC(=O)CC4C)cc3[nH]2)cc1 (stereo not shown) [pimobendan, 4,5-dihydro-6-[2-(4-methoxyphenyl)-1H-benzimidazol-5-yl]-5-methyl-3(2H)-pyridazinone]",extension of survival time (all-cause mortality) compared to placebo,[1]; also printed as 5.6 months,approx. 168 days
same,prolongation of time to the onset of clinical signs of congestive heart failure compared to placebo,[1]; also printed as 12.0 months,approx. 359 days
same,safety and tolerability,[2],safe and well tolerated
same,long-term changes in the severity of mitral regurgitation,[3],failed to identify beneficial long-term changes
same,adverse effects,dogs,increased mitral valve regurgitation and myocardial hypertrophy
same,heart size,"[4]; compared to the placebo group, measured over the first 35 days of the study, P<0.0001",reduction in heart size
same,rate or type of potential adverse events,[4]; pimobendan group vs placebo group,no difference between groups
same,Median time to the primary endpoint,"[4]; pimobendan group, 95% CI 856—NA, placebo group 766 days, P=0.0038",1228 days
same,Prolongation of the preclinical period,[4]; vs placebo group,approximately 15 months
same,"Overall survival, as determined by All Cause Mortality","[4]; vs placebo group, P=0.012",significantly longer
